Assays:
Assay in all cases: relative viability (nuclei count vs DMSO), 5 days (fraction); higher = more cells survive
[1] = tested on: NCI-H596
Summary of the method: (§1)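 After 5 days of treatment, lung cancer cells in 1536-well plates were fixed and stained in a single step (final 0.05% Triton X-100, 1% formaldehyde, 1 ug/ml Hoechst) and their nuclei counted on 4× images. Treatment had been applied by pin tool the day after seeding as one drug alone or as a fixed anchor-drug dose with five library-drug doses (not always all listed) in √10 steps. Relative viability is the nuclei count of treated wells divided by that of vehicle wells, and values are medians of duplicate plates.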

[2] = tested on: HCC-78
Summary of the method: as §1

[3] = tested on: NCI-H1944
Summary of the method: as §1

[4] = tested on: NCI-H1793
Summary of the method: as §1

[5] = tested on: NCI-H3122
Summary of the method: as §1

[6] = tested on: NCI-H2126
Summary of the method: as §1

[7] = tested on: LCLC-97TM1
Summary of the method: as §1

[8] = tested on: HOP-62
Summary of the method: as §1

[9] = tested on: COR-L23
Summary of the method: as §1

[10] = tested on: NCI-H1395
Summary of the method: as §1

[11] = tested on: NCI-H661
Summary of the method: as §1

[12] = tested on: NCI-H1666
Summary of the method: as §1

[13] = tested on: PC-14
Summary of the method: as §1

[14] = tested on: LXF-289
Summary of the method: as §1

[15] = tested on: NCI-H2085
Summary of the method: as §1

[16] = tested on: NCI-H1650
Summary of the method: as §1

[17] = tested on: HARA
Summary of the method: as §1

[18] = tested on: EPLC-272H
Summary of the method: as §1

[19] = tested on: NCI-H1437
Summary of the method: as §1

[20] = tested on: H3255
Summary of the method: as §1

[21] = tested on: NCI-H2087
Summary of the method: as §1

## Cc1csc(=NC2CCCCC2)n1/N=C/c1ccc(O)c(O)c1O [MIM1] + CS(=O)(=O)CCNCc1ccc(-c2ccc3ncnc(Nc4ccc(OCc5cccc(F)c5)c(Cl)c4)c3c2)o1 [Lapatinib] (partner 2 µM)
[1]; first compound 0.2 µM
  relative viability: 1.13
[1]; first compound 0.6325 µM
  relative viability: 1.16
[1]; first compound 2 µM
  relative viability: 1.07
[1]; first compound 6.325 µM
  relative viability: 0.932
[1]; first compound 20 µM
  relative viability: 0.733
[2]; first compound 0.2 µM
  relative viability: 0.834
[2]; first compound 0.6325 µM
  relative viability: 0.964
[2]; first compound 2 µM
  relative viability: 0.637
[2]; first compound 6.325 µM
  relative viability: 0.492
[2]; first compound 20 µM
  relative viability: 0.336
[3]; first compound 0.2 µM
  relative viability: 0.889
[3]; first compound 0.6325 µM
  relative viability: 0.805
[3]; first compound 2 µM
  relative viability: 0.491
[3]; first compound 6.325 µM
  relative viability: 0.535
[3]; first compound 20 µM
  relative viability: 0.445
[4]; first compound 0.2 µM
  relative viability: 0.768
[4]; first compound 0.6325 µM
  relative viability: 0.623
[4]; first compound 2 µM
  relative viability: 0.645
[4]; first compound 6.325 µM
  relative viability: 0.669
[4]; first compound 20 µM
  relative viability: 0.459
[5]; first compound 0.2 µM
  relative viability: 1.02
[5]; first compound 0.6325 µM
  relative viability: 1.07
[5]; first compound 2 µM
  relative viability: 1.01
[5]; first compound 6.325 µM
  relative viability: 0.859
[5]; first compound 20 µM
  relative viability: 0.304
[6]; first compound 0.2 µM
  relative viability: 0.763
[6]; first compound 0.6325 µM
  relative viability: 0.72
[6]; first compound 2 µM
  relative viability: 0.77
[6]; first compound 6.325 µM
  relative viability: 0.679
[6]; first compound 20 µM
  relative viability: 0.339
[7]; first compound 0.2 µM
  relative viability: 1.04
[7]; first compound 0.6325 µM
  relative viability: 0.526
[7]; first compound 2 µM
  relative viability: 0.539
[7]; first compound 6.325 µM
  relative viability: 0.353
[7]; first compound 20 µM
  relative viability: 0.128
[8]; first compound 0.2 µM
  relative viability: 0.929
[8]; first compound 0.6325 µM
  relative viability: 0.864
[8]; first compound 2 µM
  relative viability: 0.414
[8]; first compound 6.325 µM
  relative viability: 0.843
[8]; first compound 20 µM
  relative viability: 0.158
[9]; first compound 0.2 µM
  relative viability: 0.931
[9]; first compound 0.6325 µM
  relative viability: 1.07
[9]; first compound 2 µM
  relative viability: 0.844
[9]; first compound 6.325 µM
  relative viability: 0.619
[9]; first compound 20 µM
  relative viability: 0.286
[10]; first compound 0.2 µM
  relative viability: 1.14
[10]; first compound 0.6325 µM
  relative viability: 1.1
[10]; first compound 2 µM
  relative viability: 0.862
[10]; first compound 6.325 µM
  relative viability: 0.711
[10]; first compound 20 µM
  relative viability: 0.515
[11]; first compound 0.2 µM
  relative viability: 0.582
[11]; first compound 0.6325 µM
  relative viability: 0.625
[11]; first compound 2 µM
  relative viability: 0.548
[11]; first compound 6.325 µM
  relative viability: 0.498
[11]; first compound 20 µM
  relative viability: 0.29
[12]; first compound 0.2 µM
  relative viability: 0.662
[12]; first compound 0.6325 µM
  relative viability: 0.577
[12]; first compound 2 µM
  relative viability: 0.507
[12]; first compound 6.325 µM
  relative viability: 0.362
[12]; first compound 20 µM
  relative viability: 0.206
[13]; first compound 0.2 µM
  relative viability: 0.305
[13]; first compound 0.6325 µM
  relative viability: 0.332
[13]; first compound 2 µM
  relative viability: 0.363
[13]; first compound 6.325 µM
  relative viability: 0.349
[13]; first compound 20 µM
  relative viability: 0.479
[14]; first compound 0.2 µM
  relative viability: 0.868
[14]; first compound 0.6325 µM
  relative viability: 0.802
[14]; first compound 2 µM
  relative viability: 0.895
[14]; first compound 6.325 µM
  relative viability: 0.664
[14]; first compound 20 µM
  relative viability: 0.592
[15]; first compound 0.2 µM
  relative viability: 0.799
[15]; first compound 0.6325 µM
  relative viability: 0.796
[15]; first compound 2 µM
  relative viability: 0.772
[15]; first compound 6.325 µM
  relative viability: 0.652
[15]; first compound 20 µM
  relative viability: 0.537
[16]; first compound 0.2 µM
  relative viability: 0.788
[16]; first compound 0.6325 µM
  relative viability: 0.566
[16]; first compound 2 µM
  relative viability: 0.565
[16]; first compound 6.325 µM
  relative viability: 0.204
[16]; first compound 20 µM
  relative viability: 0.148
[17]; first compound 0.2 µM
  relative viability: 0.615
[17]; first compound 0.6325 µM
  relative viability: 0.662
[17]; first compound 2 µM
  relative viability: 0.821
[17]; first compound 6.325 µM
  relative viability: 0.55
[17]; first compound 20 µM
  relative viability: 0.128
[18]; first compound 0.2 µM
  relative viability: 0.884
[18]; first compound 0.6325 µM
  relative viability: 0.886
[18]; first compound 2 µM
  relative viability: 0.722
[18]; first compound 6.325 µM
  relative viability: 0.792
[18]; first compound 20 µM
  relative viability: 0.528
[19]; first compound 0.2 µM
  relative viability: 0.761
[19]; first compound 0.6325 µM
  relative viability: 0.672
[19]; first compound 2 µM
  relative viability: 0.91
[19]; first compound 6.325 µM
  relative viability: 0.456
[19]; first compound 20 µM
  relative viability: 0.148
[20]; first compound 0.2 µM
  relative viability: 0.274
[20]; first compound 0.6325 µM
  relative viability: 0.208
[20]; first compound 2 µM
  relative viability: 0.242
[20]; first compound 6.325 µM
  relative viability: 0.22
[20]; first compound 20 µM
  relative viability: 0.198
[21]; first compound 0.2 µM
  relative viability: 1.04
[21]; first compound 0.6325 µM
  relative viability: 0.85
[21]; first compound 2 µM
  relative viability: 0.998
[21]; first compound 6.325 µM
  relative viability: 0.602
[21]; first compound 20 µM
  relative viability: 0.511

— the supplement of paper PMC10307832
